According to PubChem BioAssay (NCI):
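A five-concentration, 48-hour dose response in 96-well plates underlies each endpoint, interpolated linearly between surrounding concentrations. Abbreviation: GI50, concentration required for 50% inhibition of growth. Definition used: TGI = concentration required for complete inhibition of growth.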

How the values were obtained:
Experiment in all cases: inhibition of tumour cell growth, NCI panel, 48 h
[1] = tested on: KM12 colon
[2] = tested on: T-47D breast
[3] = tested on: COLO 205 colon
[4] = tested on: CAKI-1 renal
[5] = tested on: OVCAR-3 ovarian
[6] = tested on: HL-60(TB) leukemia
[7] = tested on: K-562 leukemia
[8] = tested on: SK-MEL-28 melanoma
[9] = tested on: NCI-H226 lung
[10] = tested on: LOX IMVI melanoma

COC(=O)C1=C(O)C(C(=O)OC)C2CC(=O)CC1C2(C)C (stereo unspecified)
TGI [1]: > 100 µM | TGI [2]: > 100 µM | TGI [3]: > 100 µM | TGI [4]: > 100 µM | TGI [5]: > 100 µM | TGI [6]: > 100 µM | TGI [7]: > 100 µM | TGI [8]: > 100 µM | TGI [9]: > 100 µM

CC1=C([Se]CC(OC(=O)CC[Se]c2ccccc2)C(=O)NC(C)(C)C)C(=O)c2ccccc2C1=O (stereo unspecified)
GI50 [1]: 1.59 µM | TGI [1]: 3.2 µM | GI50 [2]: 1.68 µM | TGI [2]: 3.88 µM | GI50 [10]: 1.94 µM | TGI [10]: 4.7 µM | GI50 [3]: 1.6 µM | TGI [3]: 3.13 µM | GI50 [4]: 2.37 µM | TGI [4]: 4.58 µM | GI50 [5]: 1.61 µM | TGI [5]: 3.11 µM | GI50 [6]: 1.07 µM | TGI [6]: 2.92 µM | GI50 [7]: 0.729 µM | TGI [7]: 3.08 µM | GI50 [8]: 2.08 µM | TGI [8]: 3.55 µM | GI50 [9]: 2 µM | TGI [9]: 4.56 µM

c1ccc(C2ONC3=NCCN32)cc1 (stereo unspecified)
GI50 [1]: 51.3 µM | TGI [1]: > 100 µM | GI50 [2]: 44 µM | TGI [2]: > 100 µM | GI50 [10]: 11.3 µM | TGI [10]: > 100 µM | GI50 [3]: 41.6 µM | TGI [3]: > 100 µM | GI50 [4]: 36.1 µM | TGI [4]: > 100 µM | GI50 [5]: 20.5 µM | TGI [5]: 66.3 µM | GI50 [7]: 16.1 µM | TGI [7]: > 100 µM | GI50 [8]: > 100 µM | TGI [8]: > 100 µM | GI50 [9]: 25.3 µM | TGI [9]: 78.6 µM

CCSCCCSCCSCC
TGI [1]: > 100 µM | TGI [2]: > 100 µM | TGI [10]: > 100 µM | TGI [3]: > 100 µM | TGI [5]: > 100 µM | TGI [6]: > 100 µM | TGI [7]: > 100 µM | TGI [8]: > 100 µM

COc1cccc(-c2nc3cc(NC(=O)c4ccc(Cl)c(C#N)c4)ccc3o2)c1
GI50 [1]: 1.95 µM | TGI [1]: 4.48 µM | GI50 [2]: 3.75 µM | TGI [2]: > 100 µM | GI50 [10]: 3.7 µM | TGI [10]: > 100 µM | GI50 [3]: 5.77 µM | TGI [3]: > 100 µM | GI50 [4]: 23.3 µM | TGI [4]: > 100 µM | GI50 [6]: > 100 µM | TGI [6]: > 100 µM | GI50 [7]: 2.69 µM | TGI [7]: > 100 µM | GI50 [9]: 6.49 µM | TGI [9]: > 100 µM

CNC(=S)Nc1ccc(OC)c2ccccc12
TGI [1]: > 10 µM | TGI [2]: > 10 µM | TGI [10]: > 10 µM | TGI [3]: > 10 µM | TGI [4]: > 10 µM | TGI [5]: 6.72 µM | TGI [6]: > 10 µM | TGI [7]: > 10 µM | TGI [8]: > 10 µM

CC1=C2C(=C[C@@](C)(CO)[C@@H]2OC(=O)N(C)CCN(C)C(=O)OC(C)(C)C)C(=O)[C@](C)(O)C12CC2
GI50 [1]: 9.9 µM | TGI [1]: > 50 µM | GI50 [2]: 5.05 µM | TGI [2]: 35.2 µM | GI50 [10]: 12.2 µM | TGI [10]: > 50 µM | GI50 [3]: 5.27 µM | TGI [3]: 14.3 µM | GI50 [5]: 2.31 µM | TGI [5]: 21 µM | GI50 [6]: 2.3 µM | TGI [6]: 46.4 µM | GI50 [7]: 21.4 µM | TGI [7]: > 50 µM | GI50 [8]: 9.83 µM | TGI [8]: 26.5 µM | GI50 [9]: 11.7 µM | TGI [9]: 34.7 µM

CCC1(O)C(=O)OCc2c1cc1n(c2=O)Cc2cc3ccccc3nc2-1 (stereo unspecified)
TGI [1]: > 100 µM | TGI [2]: > 33.6 µM | TGI [10]: 1.33 µM | TGI [3]: 3.55 µM | TGI [4]: > 31.9 µM | TGI [5]: 2.72 µM | TGI [6]: 0.0659 µM | TGI [7]: > 100 µM | TGI [8]: 18.4 µM

O=C1C=CC(=O)c2c1ccc1c3ccccc3n(Cc3ccc([N+](=O)[O-])cc3)c21
TGI [1]: > 100 µM | TGI [2]: > 100 µM | TGI [3]: > 100 µM | TGI [4]: > 100 µM | TGI [5]: > 100 µM | TGI [6]: 33.2 µM | TGI [7]: 48.8 µM | TGI [8]: > 100 µM | TGI [9]: > 100 µM
